Data on four compounds can be found in patent US7638510B2, “Use of s-10-hydroxy-10,11-dihydro-carbamazepine for the treatment of anxiety and bipolar disorders” (Novartis AG, priority 2003, dated 2009).

The assay has as its system rat. The experiment in a line: Vogel conflict test (punished drinking). It is filed as in vivo. Conditions: for PUNISHED DRINKING (number of shocks) mean ± s.e.m.: 3 minute period; for PUNISHED DRINKING % change from control: vs vehicle; for efficacy compared between racemate and enantiomers: 50-200 mg/kg p.o.; for efficacy compared with the positive control clobazam: 50-200 mg/kg p.o. vs clobazam 64 mg/kg. On the procedure: a) Description of method: The method, which detects anxiolytic and related other psychiatric activity, follows that described by Vogel et al, Psychopharmacologia 1971; 21:1-7 Anxiolytics and antidepressants (e.g., Fontana et al., Psychopharmacology 1989; 98(2):157-62) of various classes increase punished drinking.
Rats are deprived of water for 48 hours and are then placed individually into a transparent Plexiglas enclosure (15×32×34 cm) with a floor consisting of stainless steel bars (0.4 cm) spaced 1 cm apart The back wall of the enclosure is made of opaque Plexiglass thereby concealing the observer from the experimental animal. In the centre of the opposite wall, 5 cm above the floor, a metal water spout protrudes into the cage and is connected to one pole of a shock generator (Apelex: Type 011346). The other pole of the shock generator is connected to the metal grid floor. The rat is left to explore until it found the water spout. Then, every time it drinks, it receives a slight electric shock (1.7 mA, 1 sec.) 2 seconds after it starts lapping. The number of shocks received (punished drinkings) is counted during a 3 minute period. 15 rats are studied per group. The test is performed blind. Compounds are evaluated at 50, 100 and 200 mg/kg, administered p.o. 60 minutes before the test, and compared with a vehicle control group. Clobazam (64 mg/kg), administered under the same experimental conditions, is used as reference substance. All substances are evaluated within the same experiment and compared with the same vehicle and reference substance controls. Data are analyzed by comparing treated groups with vehicle control using unpaired Student's t tests.

As to `NC(=O)N1c2ccccc2CC(O)c2ccccc21` (racemic) [M3, 10-hydroxy-10,11-dihydro-carbamazepine], the “efficacy compared between racemate and enantiomers” value was “between that of the R- and S-enantiomers”. Also, under “50 mg/kg p.o. -60 min”, the “PUNISHED DRINKING (number of shocks) mean ± s.e.m.” value was 5.9 ± 0.5 number of shocks and the “PUNISHED DRINKING % change from control” value is recorded as “+34%”. Under “100 mg/kg p.o. -60 min”, the “PUNISHED DRINKING (number of shocks) mean ± s.e.m.” value is listed as 8.4 ± 1.0 number of shocks and the “PUNISHED DRINKING % change from control” value was “+91%”. Moreover, under “200 mg/kg p.o. -60 min”, the “PUNISHED DRINKING (number of shocks) mean ± s.e.m.” value was 10.4 ± 1.5 number of shocks and the “PUNISHED DRINKING % change from control” value is reported as “+136%”.
Consider `CN1C(=O)CC(=O)N(c2ccccc2)c2cc(Cl)ccc21` [CLOBAZAM, Clobazam, reference compound], for which, where the note is “64 mg/kg p.o. -60 min”, the “PUNISHED DRINKING (number of shocks) mean ± s.e.m.” value was 8.2 ± 1.1 number of shocks and the “PUNISHED DRINKING % change from control” value is recorded as “+86%”.
As to `NC(=O)N1c2ccccc2C[C@@H](O)c2ccccc21` [M4, R(−)-10,11-dihydro-10-hydroxy-5H-dibenzo[b,f]azepine-5-carboxamide], the “efficacy compared between racemate and enantiomers” value is “less efficacious than the S-enantiomer at the lowest dose used”; the “efficacy compared with the positive control clobazam” value is on record as “less than that of the positive control”. Where the note is “50 mg/kg p.o. -60 min”, the “PUNISHED DRINKING (number of shocks) mean ± s.e.m.” value is reported as 5.0 ± 0.4 NS number of shocks and the “PUNISHED DRINKING % change from control” value is “+14%”. Further, under “100 mg/kg p.o. -60 min”, the “PUNISHED DRINKING (number of shocks) mean ± s.e.m.” value was 5.5 ± 0.5 NS number of shocks and the “PUNISHED DRINKING % change from control” value is “+25%”. In addition, for the setting “200 mg/kg p.o. -60 min”, the “PUNISHED DRINKING (number of shocks) mean ± s.e.m.” value is given as 7.4 ± 1.3 number of shocks and the “PUNISHED DRINKING % change from control” value is listed as “+68%”.
Take `NC(=O)N1c2ccccc2C[C@H](O)c2ccccc21` [M5, S(+)-10,11-dihydro-10-hydroxy-5H-dibenzo[b,f]azepine-5-carboxamide]: the “efficacy compared with the positive control clobazam” value is “surpasses that of clobazam at all doses tested”. Under “50 mg/kg p.o. -60 min”, the “PUNISHED DRINKING (number of shocks) mean ± s.e.m.” value is on record as 8.4 ± 1.3 number of shocks and the “PUNISHED DRINKING % change from control” value is “+91%”. For the same compound, for the setting “100 mg/kg p.o. -60 min”, the “PUNISHED DRINKING (number of shocks) mean ± s.e.m.” value is reported as 9.5 ± 1.0 number of shocks and the “PUNISHED DRINKING % change from control” value is given as “+116%”. Also, where the note is “200 mg/kg p.o. -60 min”, the “PUNISHED DRINKING (number of shocks) mean ± s.e.m.” value is 10.5 ± 1.3 number of shocks and the “PUNISHED DRINKING % change from control” value is reported as “+139%”.
